Measurements published in patent US20050118381A1, “Diimonium salt mixtures, aminium salts mixtures and use thereof” (priority 2002, published 2005).

Assays:
Type in all cases: physicochemical
[1] = Heat resistance stability test of near-infrared absorption filter coat film
Protocol: (§1) 1.2 parts of compound No. 1a (Sample 1X), No. 6a (Sample 2X) and No. 15a (Sample 3X) was each dissolved in 18.8 parts of MEK. To the solution was added 80 parts of a resin solution obtained by dissolving 25 parts of an acrylic resin (Dianal BR-80, available from Mitsubishi Rayon Co., Ltd.) in 75 parts of MEK to prepare a coating solution. The coating solution was applied to a polyester film in a thickness of 2 to 4 μm and dried at 80° C. to obtain the near-infrared absorption filter of the present invention.
(§2) The obtained coat film was subjected to a heat resistance stability test in a hot air dryer at 80° C. for a predetermined time and a moisture heat resistance stability test in a temperature and humidity controlled apparatus under conditions of 60° C. and 95% RH for a predetermined time. In addition, Samples 1X and 2X were subjected to a lightfastness test using a weatherometer (Ci4000, made by Atlas Electric Devices Co.) under conditions of light source output: 0.36 W/m^2, bath temperature: 24° C., black panel temperature: 40° C. and humidity: 30% RH for 50 hours. After the tests, the color of the film was measured by an ultraviolet/visible light spectrophotometer (UV-2100, made by Shimadzu Corporation) to calculate L*, a*, b* values and stability was evaluated from the variation of the b* value. The results of heat resistance test are shown in Table 9, the results of the moisture heat resistance test are shown in Table 10 and the results of the lightfastness test are shown in Table 11.
(§3) Coat films were prepared and evaluated in the same manner except that hexafluoroantimonate of tetrakis{p-di(n-butyl)aminophenyl}phenylenediimonium (Comparative Sample 1X) and hexafluoroantimonate of tetrakis{p-di(3-cyanopropyl)aminophenyl}phenylenediimonium (Comparative Sample 2X) were used instead of the above compounds.

[2] = Solubility test of diimonium salt compound
Protocol: Solubility of compounds No. 1a, No. 3a, No. 6a, No. 2a, No. 7a, No. 13a and No. 12a obtained in the above Examples in diacetone alcohol (DAA), methyl ethyl ketone (MEK) and cyclohexanone was measured. Measurement of solubility was conducted in the same manner except that hexafluoroantimonate of tetrakis{p-di(3-cyanopropyl)aminophenyl}phenylenediimonium (Comparative Sample 1) was used instead of the above compounds.

[3] = Moisture heat resistance stability test of near-infrared absorption filter coat film; details: acrylic resin coat film
Protocol: as §1, §2, §3

[4] = Lightfastness test of dye film containing aminium salt compound
Protocol: (§4) 0.3 part of cyanine dye (OM-57) was dissolved in 15 parts of tetrafluoropropanol and 0.04 part of compound No. 2b was added to the solution to prepare coating. The obtained coating was spin coated on a polycarbonate substrate to prepare a dye film (Sample 1Z). The obtained dye film was subjected to a lightfastness test using a weatherometer (Ci4000, made by Atlas Electric Devices Co.) under conditions of light source output: 0.36 W/m^2, bath temperature: 24° C., black panel temperature: 40° C. and humidity: 30% RH for 150 hours, by applying light from the substrate side. Then the residual ratio of the cyanine dye was measured by a spectrophotometer.
Further, dye films were prepared and evaluated in the same manner except that compounds of No. 3b (Sample 2Z), No. 4b (Sample 3Z) and No. 7b (Sample 4Z) and compound No. 12b (Sample 5Z) were used instead of compound No. 2b, and the results are shown in Table 13.
For comparison, a dye film was prepared and evaluated in the same manner except that hexafluoroantimonate of tetrakis{p-di(n-butyl)aminophenyl}phenylenediimonium (Comparative Sample 1Z) was used instead of compound No. 2b.

[5] = Lightfastness test of near-infrared absorption filter coat film; details: acrylic resin coat film
Protocol: as §1
The obtained coat film was subjected to a heat resistance stability test in a hot air dryer at 80° C. for a predetermined time and a moisture heat resistance stability test in a temperature and humidity controlled apparatus under conditions of 60° C. and 95% RH for a predetermined time. […] After the tests, the color of the film was measured by an ultraviolet/visible light spectrophotometer (UV-2100, made by Shimadzu Corporation) to calculate L*, a*, b* values and stability was evaluated from the variation of the b* value. […]
as §3

[6] = Lightfastness test of dye film containing diimonium salt compound
Protocol: as §4, with “2a” for “2b”, “1Y).” for “1Z).”, “50” for “150”
Further, dye films were prepared and evaluated in the same manner except that compounds of No. 3a (Sample 2Y), No. 7a (Sample 3Y) and No. 10a (Sample 4Y), compounds of No. 12a (Sample 5Y) and No. 13a (Sample 6Y) and compound No. 19a (Sample 7Y) were used instead of compound No. 2a, and the results are shown in Table 12.
For comparison, a dye film was prepared and evaluated in the same manner except that hexafluoroantimonate of tetrakis{p-di(n-butyl)aminophenyl}phenylenediimonium (Comparative Sample 1Y) was used instead of compound No. 2a.

[7] = Solubility test of aminium salt compound
Protocol: Solubility of Compounds No. 1b, No. 3b, No. 4b, No. 6b, No. 7b, No. 12b, No. 13b, No. 14b and No. 15b obtained in the above Examples in diacetone alcohol (DAA), methyl ethyl ketone (MEK), tetrahydrofuran (THF) and methylcellosolve was measured. Measurement of solubility was conducted in the same manner except that hexafluoroantimonate of tetrakis{p-di(3-cyanopropyl)aminophenyl}phenyleneaminium (Comparative Sample 2) and hexafluorophosphate thereof (Comparative Sample 3) were used instead of the above compounds.

[8] = dye film: 0.3 part OM-57 + 0.04 part compound on polycarbonate, before irradiation

hexafluoroantimonate of tetrakis{p-di(3-cyanopropyl)aminophenyl}phenylenediimonium [Comparative Sample 1]
solubility in MEK (film preparation) ([1]; 1.2 parts in 18.8 parts of MEK, impossible to prepare a film): poor
solubility cyclohexane ([2]; column head cyclohexane (text: cyclohexanone)): insoluble
solubility DAA ([2]; in diacetone alcohol (DAA)): insoluble
solubility MEK ([2]; in methyl ethyl ketone (MEK)): insoluble

CCCCN(CCCC)c1ccc([N+](=C2C=CC(=[N+](c3ccc(N(CCCC)CCCC)cc3)c3ccc(N(CCCC)CCCC)cc3)C=C2)c2ccc(N(CCCC)CCCC)cc2)cc1.[F][Sb-]([F])([F])([F])([F])[F].[F][Sb-]([F])([F])([F])([F])[F] [Comparative Sample 1X, hexafluoroantimonate of tetrakis{p-di(n-butyl)aminophenyl}phenylenediimonium]
b* value initial stage ([1]; acrylic resin coat film on polyester film, before hot air dryer 80° C.): 2.85
b* value after 4 days ([1]; acrylic resin coat film, hot air dryer 80° C., 4 days): 3.65
b* value after 7 days ([1]; acrylic resin coat film, hot air dryer 80° C., 7 days): 3.93
b* value after 14 days ([1]; acrylic resin coat film, hot air dryer 80° C., 14 days): 4.30
b* value after 4 days ([3]; 60° C. and 95% RH, 4 days): 4.23
b* value after 7 days ([3]; 60° C. and 95% RH, 7 days): 4.69
b* value after 14 days ([3]; 60° C. and 95% RH, 14 days): 5.55
b* value initial stage ([3]; before 60° C. and 95% RH): 2.85
residual ratio of cyanine dye initial stage [4, 8]: 100%
residual ratio of cyanine dye after 150 hours ([4]; dye film: 0.3 part OM-57 + 0.04 part compound, weatherometer 0.36 W/m^2, 150 hours): 29%
b* value initial stage ([5]; before weatherometer): 2.85
b* value after 50 hours ([5]; weatherometer 0.36 W/m^2, 24° C., 30% RH, 50 hours): 6.49
residual ratio of cyanine dye initial stage [6, 8]: 100%
residual ratio of cyanine dye after 50 hours ([6]; dye film: 0.3 part OM-57 + 0.04 part compound, weatherometer 0.36 W/m^2, 50 hours): 69%

hexafluoroantimonate of tetrakis{p-di(3-cyanopropyl)aminophenyl}phenyleneaminium [Comparative Sample 2]
solubility DAA ([7]; in diacetone alcohol (DAA)): 1.2 wt %
solubility MEK ([7]; in methyl ethyl ketone (MEK)): 1.7 wt %
solubility THF ([7]; in tetrahydrofuran (THF)): insoluble
